According to patent US9549932B2, “2-(morpholin-4-yl)-1,7-naphthyridines” (BAYER PHARMA AKTIENGESELLSCHAFT, priority 2014, dated 2017):

What follows are compounds tested against full-length human ATR protein (Homo sapiens (Human), UniProt Q13535) (assay: Binding assay ATR (TR-FRET tracer displacement)). Settings: tracer A, TR-FRET; read-out: ATR binding (tracer A) IC50.
Method in brief: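 Full-length human GST-ATR co-purified with ATRIP, pre-complexed 30 min at 22 °C with anti-GST-Tb antibody, then pre-bound with compound 10 min. Tracer A or B added (2 µl of 100 nM solution), 30 min at 22 °C.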

full-length human ATR protein, sequence (Q13535 other isoform, or with tags, fused parts or gaps): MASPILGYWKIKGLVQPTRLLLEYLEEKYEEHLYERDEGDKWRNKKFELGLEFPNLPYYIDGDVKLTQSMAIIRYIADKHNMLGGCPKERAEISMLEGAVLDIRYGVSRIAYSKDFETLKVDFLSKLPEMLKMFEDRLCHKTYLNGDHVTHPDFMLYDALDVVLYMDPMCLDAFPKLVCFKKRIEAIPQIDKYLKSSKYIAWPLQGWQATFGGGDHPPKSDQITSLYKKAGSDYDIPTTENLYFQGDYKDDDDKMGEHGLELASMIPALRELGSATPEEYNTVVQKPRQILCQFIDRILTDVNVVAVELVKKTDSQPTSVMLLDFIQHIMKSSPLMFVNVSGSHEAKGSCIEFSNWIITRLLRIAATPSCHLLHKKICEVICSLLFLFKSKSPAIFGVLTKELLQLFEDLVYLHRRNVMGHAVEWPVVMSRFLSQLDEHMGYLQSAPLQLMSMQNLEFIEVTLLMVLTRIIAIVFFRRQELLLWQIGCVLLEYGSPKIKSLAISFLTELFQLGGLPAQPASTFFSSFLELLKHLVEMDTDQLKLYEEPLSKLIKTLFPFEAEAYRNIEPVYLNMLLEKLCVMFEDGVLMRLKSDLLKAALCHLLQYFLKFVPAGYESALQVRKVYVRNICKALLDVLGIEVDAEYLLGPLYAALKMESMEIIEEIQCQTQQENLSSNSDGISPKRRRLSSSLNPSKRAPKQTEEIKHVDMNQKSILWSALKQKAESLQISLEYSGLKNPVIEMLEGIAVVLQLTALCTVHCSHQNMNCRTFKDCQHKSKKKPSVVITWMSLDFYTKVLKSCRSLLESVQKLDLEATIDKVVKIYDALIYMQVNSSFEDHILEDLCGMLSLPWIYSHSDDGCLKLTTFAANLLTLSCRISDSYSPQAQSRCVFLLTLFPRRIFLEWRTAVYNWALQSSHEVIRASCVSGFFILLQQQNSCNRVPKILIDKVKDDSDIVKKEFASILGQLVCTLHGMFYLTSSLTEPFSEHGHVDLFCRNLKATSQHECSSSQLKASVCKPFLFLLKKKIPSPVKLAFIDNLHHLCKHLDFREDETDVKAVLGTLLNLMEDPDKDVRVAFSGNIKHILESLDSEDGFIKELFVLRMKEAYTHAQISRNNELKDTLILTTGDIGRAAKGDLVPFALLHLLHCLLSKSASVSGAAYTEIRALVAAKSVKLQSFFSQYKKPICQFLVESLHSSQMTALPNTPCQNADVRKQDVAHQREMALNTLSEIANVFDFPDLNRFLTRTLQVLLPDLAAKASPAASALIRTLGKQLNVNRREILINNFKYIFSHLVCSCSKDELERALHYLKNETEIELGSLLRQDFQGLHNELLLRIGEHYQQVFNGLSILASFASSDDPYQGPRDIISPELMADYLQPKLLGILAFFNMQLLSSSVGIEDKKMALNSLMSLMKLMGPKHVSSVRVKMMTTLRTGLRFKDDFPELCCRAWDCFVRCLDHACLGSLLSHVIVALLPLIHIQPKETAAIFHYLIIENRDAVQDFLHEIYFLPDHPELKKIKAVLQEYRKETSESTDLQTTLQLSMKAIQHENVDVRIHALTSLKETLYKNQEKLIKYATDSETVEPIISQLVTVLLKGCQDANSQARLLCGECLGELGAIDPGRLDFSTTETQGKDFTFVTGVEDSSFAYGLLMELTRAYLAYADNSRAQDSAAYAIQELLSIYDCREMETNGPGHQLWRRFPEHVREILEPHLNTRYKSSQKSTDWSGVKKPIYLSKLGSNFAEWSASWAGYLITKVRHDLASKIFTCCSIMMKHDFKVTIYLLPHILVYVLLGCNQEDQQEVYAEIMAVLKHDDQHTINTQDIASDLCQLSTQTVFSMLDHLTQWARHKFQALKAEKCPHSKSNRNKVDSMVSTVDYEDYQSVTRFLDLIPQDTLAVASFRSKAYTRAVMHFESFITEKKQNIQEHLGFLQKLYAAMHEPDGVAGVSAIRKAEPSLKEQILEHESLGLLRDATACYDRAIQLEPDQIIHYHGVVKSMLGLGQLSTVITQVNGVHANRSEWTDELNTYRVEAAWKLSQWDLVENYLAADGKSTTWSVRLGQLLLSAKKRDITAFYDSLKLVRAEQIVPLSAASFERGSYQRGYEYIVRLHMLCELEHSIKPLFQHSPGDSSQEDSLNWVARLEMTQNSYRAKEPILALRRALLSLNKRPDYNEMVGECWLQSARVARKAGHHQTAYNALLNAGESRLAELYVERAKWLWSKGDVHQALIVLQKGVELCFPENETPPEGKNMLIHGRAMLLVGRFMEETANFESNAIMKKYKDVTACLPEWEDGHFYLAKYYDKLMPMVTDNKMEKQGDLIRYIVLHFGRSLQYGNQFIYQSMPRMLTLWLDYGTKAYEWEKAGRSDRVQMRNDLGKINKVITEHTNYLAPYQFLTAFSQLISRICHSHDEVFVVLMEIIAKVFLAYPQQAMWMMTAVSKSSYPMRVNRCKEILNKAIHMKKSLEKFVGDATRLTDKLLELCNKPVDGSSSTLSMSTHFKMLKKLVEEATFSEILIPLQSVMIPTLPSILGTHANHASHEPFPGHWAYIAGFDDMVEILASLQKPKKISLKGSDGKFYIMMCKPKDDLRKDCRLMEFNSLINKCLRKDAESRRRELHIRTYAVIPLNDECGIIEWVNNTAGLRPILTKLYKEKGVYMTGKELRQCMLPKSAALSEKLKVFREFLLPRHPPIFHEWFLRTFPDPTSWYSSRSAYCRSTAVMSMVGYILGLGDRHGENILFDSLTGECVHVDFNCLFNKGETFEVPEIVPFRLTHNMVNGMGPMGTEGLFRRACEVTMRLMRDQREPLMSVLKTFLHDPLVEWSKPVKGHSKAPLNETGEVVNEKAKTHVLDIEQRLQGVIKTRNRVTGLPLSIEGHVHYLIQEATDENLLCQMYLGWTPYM
full-length human ATR protein, sequence (Q8WXE1 other isoform, or with tags, fused parts or gaps partner): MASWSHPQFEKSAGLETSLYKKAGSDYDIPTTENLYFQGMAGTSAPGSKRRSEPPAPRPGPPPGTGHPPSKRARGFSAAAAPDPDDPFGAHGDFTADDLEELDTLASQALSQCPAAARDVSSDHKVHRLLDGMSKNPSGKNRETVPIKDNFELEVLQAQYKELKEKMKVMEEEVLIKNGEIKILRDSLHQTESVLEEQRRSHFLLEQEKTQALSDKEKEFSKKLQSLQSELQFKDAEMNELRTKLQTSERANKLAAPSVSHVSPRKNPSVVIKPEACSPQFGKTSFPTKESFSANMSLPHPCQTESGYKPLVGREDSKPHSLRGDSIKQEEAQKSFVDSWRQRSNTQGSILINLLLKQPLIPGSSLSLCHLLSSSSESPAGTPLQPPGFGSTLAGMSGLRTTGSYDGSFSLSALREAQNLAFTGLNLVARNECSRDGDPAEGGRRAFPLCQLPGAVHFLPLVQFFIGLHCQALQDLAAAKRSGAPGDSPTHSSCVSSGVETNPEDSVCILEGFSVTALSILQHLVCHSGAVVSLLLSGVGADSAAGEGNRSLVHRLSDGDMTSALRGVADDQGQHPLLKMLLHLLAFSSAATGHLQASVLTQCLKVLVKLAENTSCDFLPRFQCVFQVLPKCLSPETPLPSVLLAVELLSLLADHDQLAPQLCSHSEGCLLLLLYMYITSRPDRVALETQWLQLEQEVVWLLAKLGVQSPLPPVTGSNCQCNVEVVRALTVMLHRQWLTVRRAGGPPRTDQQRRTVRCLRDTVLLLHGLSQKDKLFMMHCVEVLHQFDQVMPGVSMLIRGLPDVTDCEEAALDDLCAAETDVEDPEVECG

Row | SMILES | IC50 [nM]
1 | C[C@@H]1COCCN1c1cc(-c2ccn(C3CCOCC3)n2)c2ccnc(-c3ccn[nH]3)c2n1 [Example 246, 2-[(3R)-3-methylmorpholin-4-yl]-8-(1H-pyrazol-5-yl)-4-[1-(tetrahydro-2H-pyran-4-yl)-1H-pyrazol-3-yl]-1,7-naphthyridine] | 68
2 | C[C@@H]1COCCN1c1cc(-c2cnc(F)cc2F)c2ccnc(-c3ccn[nH]3)c2n1 [Example 247, 4-(4,6-difluoropyridin-3-yl)-2-[(3R)-3-methylmorpholin-4-yl]-8-(1H-pyrazol-5-yl)-1,7-naphthyridine] | 21.6
3 | C[C@@H]1COCCN1c1cc(-c2cnn(C)c2)c2ccnc(-c3ccn[nH]3)c2n1 [Example 248, 2-[(3R)-3-methylmorpholin-4-yl]-4-(1-methyl-1H-pyrazol-4-yl)-8-(1H-pyrazol-5-yl)-1,7-naphthyridine] | 24.1
4 | Cc1nn(C)cc1-c1cc(N2CCOC[C@H]2C)nc2c(-c3ccn[nH]3)nccc12 [Example 249, 4-(1,3-dimethyl-1H-pyrazol-4-yl)-2-[(3R)-3-methylmorpholin-4-yl]-8-(1H-pyrazol-5-yl)-1,7-naphthyridine] | 13.7
5 | Cc1c(-c2cc(N3CCOC[C@H]3C)nc3c(-c4ccn[nH]4)nccc23)cnn1C [Example 250, 4-(1,5-dimethyl-1H-pyrazol-4-yl)-2-[(3R)-3-methylmorpholin-4-yl]-8-(1H-pyrazol-5-yl)-1,7-naphthyridine] | 6.62
6 | C[C@@H]1COCCN1c1cc(C2CCNCC2)c2ccnc(-c3ccn[nH]3)c2n1 [Example 251, 2-[(3R)-3-methylmorpholin-4-yl]-4-(piperidin-4-yl)-8-(1H-pyrazol-5-yl)-1,7-naphthyridine] | 27.5
7 | C[C@@H]1COCCN1c1cc(-c2c[nH]nc2C(F)(F)F)c2ccnc(-c3ccn[nH]3)c2n1 [Example 252, 2-[(3R)-3-methylmorpholin-4-yl]-8-(1H-pyrazol-5-yl)-4-[3-(trifluoromethyl)-1H-pyrazol-4-yl]-1,7-naphthyridine] | 6.45
8 | C[C@@H]1COCCN1c1cc(-c2cnn(C3CCC3)c2)c2ccnc(-c3ccn[nH]3)c2n1 [Example 253, 4-(1-cyclobutyl-1H-pyrazol-4-yl)-2-[(3R)-3-methylmorpholin-4-yl]-8-(1H-pyrazol-5-yl)-1,7-naphthyridine] | 33.7
9 | C[C@@H]1COCCN1c1cc(-c2cnn(C3CC3)c2)c2ccnc(-c3ccn[nH]3)c2n1 [Example 254, 4-(1-cyclopropyl-1H-pyrazol-4-yl)-2-[(3R)-3-methylmorpholin-4-yl]-8-(1H-pyrazol-5-yl)-1,7-naphthyridine] | 44.8
10 | C[C@@H]1COCCN1c1cc(-c2cnn(C(F)F)c2)c2ccnc(-c3ccn[nH]3)c2n1 [Example 256, 4-[1-(difluoromethyl)-1H-pyrazol-4-yl]-2-[(3R)-3-methylmorpholin-4-yl]-8-(1H-pyrazol-5-yl)-1,7-naphthyridine] | 56.2
11 | C[C@@H]1COCCN1c1cc(-c2cnn(C(C)(C)C)c2)c2ccnc(-c3ccn[nH]3)c2n1 [Example 257, 4-(1-tert-butyl-1H-pyrazol-4-yl)-2-[(3R)-3-methylmorpholin-4-yl]-8-(1H-pyrazol-5-yl)-1,7-naphthyridine] | 58.8
12 | Cc1nn(C)c(C)c1-c1cc(N2CCOC[C@H]2C)nc2c(-c3ccn[nH]3)nccc12 [Example 258, 2-[(3R)-3-methylmorpholin-4-yl]-8-(1H-pyrazol-5-yl)-4-(1,3,5-trimethyl-1H-pyrazol-4-yl)-1,7-naphthyridine] | 7.66
13 | C[C@@H]1COCCN1c1cc(-c2cn(C)nc2C(F)(F)F)c2ccnc(-c3ccn[nH]3)c2n1 [Example 259, 2-[(3R)-3-methylmorpholin-4-yl]-4-[1-methyl-3-(trifluoromethyl)-1H-pyrazol-4-yl]-8-(1H-pyrazol-5-yl)-1,7-naphthyridine] | 17.1
14 | C[C@@H]1COCCN1c1cc(-c2cnn(CCO)c2)c2ccnc(-c3ccn[nH]3)c2n1 [Example 260, 2-(4-{2-[(3R)-3-methylmorpholin-4-yl]-8-(1H-pyrazol-5-yl)-1,7-naphthyridin-4-yl}-1H-pyrazol-1-yl)ethanol] | 28.1
15 | CCn1cc(-c2cc(N3CCOC[C@H]3C)nc3c(-c4ccn[nH]4)nccc23)cn1 [Example 261, 4-(1-ethyl-1H-pyrazol-4-yl)-2-[(3R)-3-methylmorpholin-4-yl]-8-(1H-pyrazol-5-yl)-1,7-naphthyridine] | 29.2
16 | C[C@@H]1COCCN1c1cc(-c2ccn(C)c2)c2ccnc(-c3ccn[nH]3)c2n1 [Example 262, 2-[(3R)-3-methylmorpholin-4-yl]-4-(1-methyl-1H-pyrrol-3-yl)-8-(1H-pyrazol-5-yl)-1,7-naphthyridine] | 42.2
17 | CC(C)n1ccc(-c2cc(N3CCOC[C@H]3C)nc3c(-c4ccn[nH]4)nccc23)n1 [Example 263, 2-[(3R)-3-methylmorpholin-4-yl]-4-[1-(propan-2-yl)-1H-pyrazol-3-yl]-8-(1H-pyrazol-5-yl)-1,7-naphthyridine] | 19.3
18 | Cc1cc(-c2cc(N3CCOC[C@H]3C)nc3c(-c4ccn[nH]4)nccc23)c(C)n1C [Example 264, 2-[(3R)-3-methylmorpholin-4-yl]-8-(1H-pyrazol-5-yl)-4-(1,2,5-trimethyl-1H-pyrrol-3-yl)-1,7-naphthyridine] | 25.5
19 | Cc1n[nH]cc1-c1cc(N2CCOC[C@H]2C)nc2c(-c3ccn[nH]3)nccc12 [Example 266, 2-[(3R)-3-methylmorpholin-4-yl]-4-(3-methyl-1H-pyrazol-4-yl)-8-(1H-pyrazol-5-yl)-1,7-naphthyridine] | 8.31
20 | C[C@@H]1COCCN1c1cc(N)c2ccnc(-c3ccn[nH]3)c2n1 [Example 267, 2-[(3R)-3-methylmorpholin-4-yl]-8-(1H-pyrazol-5-yl)-1,7-naphthyridin-4-amine] | 1010
21 | CC(C)Cn1cc(-c2cc(N3CCOC[C@H]3C)nc3c(-c4ccn[nH]4)nccc23)cn1 [Example 268, 2-[(3R)-3-methylmorpholin-4-yl]-4-[1-(2-methylpropyl)-1H-pyrazol-4-yl]-8-(1H-pyrazol-5-yl)-1,7-naphthyridine] | 19.3
22 | C[C@@H]1COCCN1c1cc(-c2cn[nH]c2)c2ccnc(-c3ccn[nH]3)c2n1 [Example 269, 2-[(3R)-3-methylmorpholin-4-yl]-4-(1H-pyrazol-4-yl)-8-(1H-pyrazol-5-yl)-1,7-naphthyridine] | 12.7
23 | C[C@@H]1COCCN1c1cc(-c2ncco2)c2ccnc(-c3ccn[nH]3)c2n1 [Example 270, 2-[(3R)-3-methylmorpholin-4-yl]-4-(1,3-oxazol-2-yl)-8-(1H-pyrazol-5-yl)-1,7-naphthyridine] | 33.7
24 | Cc1nn(C)cc1-c1cc(N2CCOCC2)nc2c(-c3ccn[nH]3)nccc12 [Example 271, 4-(1,3-dimethyl-1H-pyrazol-4-yl)-2-(morpholin-4-yl)-8-(1H-pyrazol-5-yl)-1,7-naphthyridine] | 41.6
25 | Cc1nn(C)c(C)c1-c1cc(N2CCOCC2)nc2c(-c3ccn[nH]3)nccc12 [Example 273, 2-(morpholin-4-yl)-8-(1H-pyrazol-5-yl)-4-(1,3,5-trimethyl-1H-pyrazol-4-yl)-1,7-naphthyridine] | 14
26 | COCCS(C)(=O)=Nc1cc(N2CCOC[C@H]2C)nc2c(-c3ccn[nH]3)nccc12 (stereo partly drawn) [Example 274, 4-{[(2-methoxyethyl)(methyl)oxido-λ^6-sulfanylidene]amino}-2-[(3R)-3-methylmorpholin-4-yl]-8-(1H-pyrazol-5-yl)-1,7-naphthyridine] | 62.7
